# Data from patent US20070061917A1, “Methods and compositions for the expression of a polynucleotide of interest” (Pioneer Hi-Bred International, Inc., priority 2005, published 2007).
# Assays:
# [1] = system: infected GS3 embryos with the GAT construct; test: Glyphosate response of embryos infected with the GAT construct; format: cell-based, maize; settings: about 40 days culture
# Protocol: (§1) A glyphosate kill curve was established by testing non-transformed embryos response on media with different levels of glyphosate. GS3 embryos were isolated from an immature ear and placed onto media containing glyphosate at 0.0, 0.5, 1.0, and 2.0 mM. After about 40 days culture, the response of the embryos were observed and recorded. Similarly, infected GS3 embryos with the GAT construct were placed onto media containing glyphosate at 0.0, 0.5, 1.0, and 2.0 mM. After about 40 days culture, the response of the infected embryos were observed and recorded (FIG. 7).
# (§2) Western or PCR analysis has confirmed that these resistant calli were transformed. Currently, GAT has performed consistently as an effective selectable marker with excellent transformation efficiency in both GS3 and introEF09B genotypes (FIG. 9 and Table 1).
# [2] = system: non-transformed GS3 embryos; test: Glyphosate kill curve on non-transformed embryos; format: cell-based, maize; settings: about 40 days culture
# Protocol: as §1, §2
compound,measurement,setting,value
O=C(O)CNCP(=O)(O)O [glyphosate],embryo callus response,[1]; 0.5 mM glyphosate in medium,more callus was grown
same,embryo callus response,[1]; 1.0 mM glyphosate in medium,some embryos initiated resistant callus
same,embryo callus response,[1]; 2.0 mM glyphosate in medium,some embryos initiated resistant callus
same,embryo callus response,[2]; 0.5 mM glyphosate in medium,about half of the embryos
same,embryo callus response,[2]; 1.0 mM glyphosate in medium,very little callus growth
same,embryo callus response,[2]; 2.0 mM glyphosate in medium,very little callus growth
